Among the test systems are A498 renal; MALME-3M melanoma; PC-3 prostate; RPMI-8226 leukemia; SF-295 CNS; SF-539 CNS; SK-MEL-28 melanoma; T-47D breast; MOLT-4 leukemia; SNB-19 CNS.
What all share (assay): NCI-60 cell line screen, 48 h

“And” between values parts separate entries of the source, which are not always exact repeats. Equal values may be shown once.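 Values below derive from 48-hour exposures of cells grown in 96-well plates, with endpoints linearly interpolated between the two concentrations bracketing the appropriate inhibition level. Here, GI50 denotes the concentration required for 50% inhibition of growth. TGI is the concentration that stops growth completely.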 Some results are limits rather than exact numbers.

`C=CCC(N[C@H](CO)c1ccccc1)c1ccc2ccccc2n1` (stereo partly drawn): the GI50 with A498 renal is 29.3 µM; with MALME-3M melanoma it was over 100 µM; with PC-3 prostate it was over 100 µM; in the experiment with RPMI-8226 leukemia, over 100 µM; in the experiment with SF-295 CNS, over 100 µM; in the experiment on SF-539 CNS it was over 100 µM. The GI50 in the experiment on SK-MEL-28 melanoma and with T-47D breast was over 100 µM each time. Also, the TGI in the experiment on A498 renal, with MALME-3M melanoma, in the experiment on PC-3 prostate, with RPMI-8226 leukemia, in the experiment on SF-295 CNS and with SF-539 CNS was over 100 µM throughout. Moreover, the TGI in the experiment on SK-MEL-28 melanoma and with T-47D breast was over 100 µM in each case.

As to `COc1cc2c(cc1OCCCOc1cc3c(cc1OC)C(=O)N1C[C@H](F)C[C@H]1C=N3)N=C[C@@H]1C[C@@H](F)CN1C2=O`, the GI50 in the experiment on MALME-3M melanoma is 4.28 µM; in the experiment with MOLT-4 leukemia, 1.33 µM; with PC-3 prostate, 12.6 µM; in the experiment with RPMI-8226 leukemia it was 2.01 µM; with SF-295 CNS it was 5.36 µM; in the experiment on SK-MEL-28 melanoma, 15.7 µM. Also, the GI50 in the experiment on SNB-19 CNS was 14 µM; in the experiment on T-47D breast it was 15.9 µM. In addition, the TGI was 18.1 µM with MALME-3M melanoma; 4.3 µM in the experiment on MOLT-4 leukemia; 37.3 µM in the experiment with PC-3 prostate; 5.79 µM in the experiment on RPMI-8226 leukemia; 18.1 µM in the experiment with SF-295 CNS; 29.9 µM in the experiment on SK-MEL-28 melanoma. Also, the TGI was 27.7 µM in the experiment on SNB-19 CNS and 58 µM with T-47D breast.

For `CC(O)c1cccc(NCc2c3ccccc3c(=O)n3c2oc2ccccc23)c1` (stereo not drawn), the GI50 in the experiment on A498 renal is 1.61 µM; in the experiment on MOLT-4 leukemia it was 5.03 µM; in the experiment with PC-3 prostate it was 7.11 µM; in the experiment on RPMI-8226 leukemia it was 65 µM; with SF-295 CNS, 2.43 µM; in the experiment with SF-539 CNS it was 1.37 µM. Besides, the GI50 was 6 µM with SK-MEL-28 melanoma, 16.4 µM in the experiment on SNB-19 CNS and 14.4 µM in the experiment on T-47D breast. For the same compound, the TGI was 4.93 µM with A498 renal; over 100 µM with MOLT-4 leukemia; over 100 µM in the experiment on PC-3 prostate; over 100 µM with RPMI-8226 leukemia; 14.5 µM in the experiment with SF-295 CNS; 3.43 µM in the experiment with SF-539 CNS. Besides, the TGI was determined as 35.6 µM in the experiment on SK-MEL-28 melanoma, 88.3 µM with SNB-19 CNS and 64.6 µM with T-47D breast.

Take `CC1(C)C2CCC3=C(CCC4(C)C5C[C@](C)(C(=O)O)CC[C@]5(C)CC[C@]34C)[C@@]2(C)CC[C@@H]1O` (stereo partly drawn): the TGI was 44.7 µM with A498 renal; 31.5 µM in the experiment with MALME-3M melanoma; 48.9 µM in the experiment with MOLT-4 leukemia; 29.1 µM in the experiment on PC-3 prostate; 51.1 µM in the experiment with RPMI-8226 leukemia; over 100 µM with SF-539 CNS. Moreover, the TGI with SK-MEL-28 melanoma is 33.7 µM; with T-47D breast, 38.4 µM.

With `Cc1c[nH]c2c(O)cc3c(c12)[C@H](CCl)CN3C(=O)c1cc2cc(NC(=O)Nc3ccc4[nH]c(C(=O)N5C[C@@H](CCl)c6c5cc(O)c5[nH]cc(C)c65)cc4c3)ccc2[nH]1`, the TGI is 75.7 nM and 15 µM and 0.00215 µg/mL in the experiment on A498 renal; 34.2 µM and 0.0012 µg/mL in the experiment with MALME-3M melanoma; 0.0911 µM and 0.0461 µM in the experiment with T-47D breast. Also, the GI50 is 0.023 µM in the experiment with PC-3 prostate and 0.00671 µM with T-47D breast.

In the case of `CCC1(CC)C(=O)OC(=O)C1(CC)CC`, the TGI in the experiment with A498 renal, with MOLT-4 leukemia, with PC-3 prostate, in the experiment with RPMI-8226 leukemia, in the experiment with SF-295 CNS and with SF-539 CNS was over 100 µM throughout. Also, the TGI with SK-MEL-28 melanoma, in the experiment with SNB-19 CNS and in the experiment on T-47D breast was over 100 µM in each case.

In the case of `COc1ccc(N2C(=O)CC(Cl)C2=O)cc1` (stereo not drawn), the TGI in the experiment on A498 renal was over 100 µM; in the experiment with MALME-3M melanoma, 32.8 µM; with PC-3 prostate, over 100 µM; in the experiment with RPMI-8226 leukemia, 37.2 µM; in the experiment with SF-539 CNS, 32.5 µM; with SK-MEL-28 melanoma, 30.2 µM. Moreover, the TGI in the experiment on SNB-19 CNS was over 100 µM; with T-47D breast, 38.4 µM.

On to `CCOC(=O)c1cc(C#N)c(=O)n(/N=C(\C)c2ccncc2)c1O`, for which the GI50 in the experiment with MALME-3M melanoma, with MOLT-4 leukemia, in the experiment with PC-3 prostate, in the experiment on RPMI-8226 leukemia, in the experiment on SF-295 CNS and in the experiment with SK-MEL-28 melanoma was over 100 µM each time. Further, the GI50 in the experiment with SNB-19 CNS and with T-47D breast was over 100 µM in each case. In addition, the TGI in the experiment with MALME-3M melanoma, with MOLT-4 leukemia, in the experiment on PC-3 prostate, with RPMI-8226 leukemia, in the experiment on SF-295 CNS and in the experiment with SK-MEL-28 melanoma was over 100 µM throughout. Also, the TGI in the experiment with SNB-19 CNS and in the experiment on T-47D breast was over 100 µM each time.

Turning to `CCN(CC)CCC(=O)NC1c2ccc(Cl)cc2Oc2c(C)cccc21` (stereo not drawn), the TGI was determined as 38.7 µM in the experiment on MOLT-4 leukemia; 26.7 µM in the experiment with PC-3 prostate; 70.3 µM in the experiment on RPMI-8226 leukemia; 33.9 µM in the experiment on SF-295 CNS; 27.7 µM in the experiment on SF-539 CNS; 27.9 µM in the experiment with SK-MEL-28 melanoma. In addition, the results for the TGI in the experiment with SNB-19 CNS and with T-47D breast were 27.1 µM and 31.5 µM, respectively.

Take `Cn1c([N+](=O)[O-])cnc1/C=C1\Oc2ccccc2C1=O`: the GI50 in the experiment with MALME-3M melanoma was 0.626 µM; in the experiment on MOLT-4 leukemia it was 0.159 µM; with PC-3 prostate, 1.46 µM; in the experiment with RPMI-8226 leukemia it was 1.27 µM; in the experiment with SF-295 CNS, 1.65 µM; with SF-539 CNS, 1.78 µM. Moreover, the GI50 is 0.43 µM in the experiment with SK-MEL-28 melanoma, 1.47 µM in the experiment on SNB-19 CNS and 12.7 µM in the experiment on T-47D breast. The TGI with MALME-3M melanoma was 3.2 µM; in the experiment on MOLT-4 leukemia it was 0.758 µM; in the experiment with PC-3 prostate, over 22.7 µM; in the experiment on RPMI-8226 leukemia, 5.31 µM; in the experiment with SF-295 CNS it was 6.19 µM; with SF-539 CNS it was 4.74 µM. Moreover, the results for the TGI in the experiment with SK-MEL-28 melanoma, in the experiment with SNB-19 CNS and with T-47D breast were 3.36 µM, 5.58 µM and 68.8 µM, respectively.

As to `O=C(/C=C/c1ccc(F)cc1)c1ccc(Cl)cc1Cl`, the GI50 in the experiment on A498 renal is over 100 µM; in the experiment on MALME-3M melanoma it was over 100 µM; in the experiment with MOLT-4 leukemia it was 26.2 µM; with PC-3 prostate, 31.3 µM; in the experiment with RPMI-8226 leukemia, 17.5 µM; in the experiment with SF-295 CNS, 77.3 µM. Moreover, the values for the GI50 in the experiment with SF-539 CNS and with SNB-19 CNS were over 100 µM and 23.7 µM, respectively. Besides, the TGI was over 100 µM with A498 renal; over 100 µM in the experiment on MALME-3M melanoma; 63.9 µM with MOLT-4 leukemia; 96.8 µM in the experiment on PC-3 prostate; 39.5 µM in the experiment with RPMI-8226 leukemia; over 100 µM with SF-295 CNS. The TGI with SF-539 CNS was over 100 µM; in the experiment with SNB-19 CNS it was 77.8 µM.

These data come from PubChem BioAssay (NCI).
